{
  "source": "paper PMC5387716",
  "about": "“Discovery of monocarbonyl curcumin-BTP hybrids as STAT3 inhibitors for drug-sensitive and drug-resistant breast cancer therapy” (Scientific Reports, 2017)",
  "key": {"[1]": {"system": "Jak2", "assay": "Western blot of p-Jak2", "format": "cell-based, human", "details": "MCF-7 and MCF-7/DOX cells, 24 h", "protocol": "(§1) MCF-7 or MCF-7/DOX cells were incubated with various concentrations of 6b for 24 h. After trypsinization, cells were treated with 1× RIPA lysis buffer (50 mM Tris–HCl, pH 7.4, 150 mM NaCl, 0.25% deoxycholic acid, 1% NP-40, 1 mM EDTA and protease inhibitors) (Amresco, Solon, USA) to extract the total proteins. An aliquot of proteins from the total cell lysates (30 to 60 μg/lane) was separated by sodium dodecyl sulfate (10%) polyacrylamide gel electrophoresis (SDS–PAGE, Bio-Rad Laboratories, Hercules, CA), wet-transferred to NC membrane (Bio-Rad Laboratories, Hercules, CA) and blotted with primary antibodies specific for STAT3, p-STAT3, p-Jak2, Jak2, p-Src, Src, Erk, P-Erk, PARP, cleaved PARP, Bcl-2, Bax, Cyclin D1, P-gp and GAPDH. Bound immuno-complexes were detected using ChemiDOC™ XRS + system (Bio-Rad Laboratories, Hercules, CA)."}, "[2]": {"system": "Src", "assay": "Western blot of p-Src", "format": "cell-based, human", "details": "MCF-7 and MCF-7/DOX cells, 24 h", "protocol": "as §1"}},
  "data": [
    {"smiles": "COc1ccc(/C=C/C(=O)N2CCN(C(=O)C3=Cc4cc(Br)ccc4S3(=O)=O)CC2)cc1", "note": "[Compound 6b, (E)-1-(4-(5-bromo-1,1-dioxidobenzo[b]thiophene-2-carbonyl)piperazin-1-yl)-3-(4-methoxyphenyl)prop-2-en-1-one]", "values": [
      {"measurement": "phosphorylation of Jak2", "setting": "[1]", "result": "inhibited"},
      {"measurement": "p-Src expression", "setting": "[2]", "result": "little effect"}
    ]}
  ]
}
